Data reported in PMC9253268 (Frontiers in Immunology, 2022).

Tests used:
RAW264.7 cells [1] = experiment: Cell viability, CCK-8 assay; format: cell-based, mouse; conditions: 0.21–6.74 ng/ml MG or 0.02–0.52 ng/ml CA treatment alone
Method: Cell viability was analyzed with the cell counting kit-8 (CCK-8) assay kit (Beyotime Biotechnology, Shanghai, China) as described in Supplementary Materials Section 16 .
Section 16 Cell proliferation assay
Cell viability was analyzed with Cell Counting Kit-8 (CCK-8) assay kit (Beyotime Biotechnology, China). Raw264.7 cells were seeded into 96-well plate, and after […]
solution was added to each well. The absorbance was measured after 4h of incubation at […]
Section 17 Flow cytometry
To identify and quantify of pyroptosis population of Raw264.7 cells, FITC Apoptosis Detection kit I staining with both the Annexin V-fluorescein isothiocyanate and propidium iodide (PI, BD Biosciences, San Jose, CA, USA) was used in accordance with manufacturer's guidelines. Briefly, Raw264.7 cells was washed twice with cold PBS and then resuspended in 1×binding buffer at a concentration of 1x10^6 cells/mL. Then, 100µL of the solution (1x10^5 cells) was transferred to a 5 mL culture tube. Subsequently, 5µL of FITC Annexin V and 5µL PI were added into cultured tube, and vortexed and incubated for 15 min at room temperature in the dark. Finally, 400µL 1×binding buffer was added into each tube, and analyzed by flow cytometry (ACEA Bioscience, San Diego, CA, USA) and NovoExpress 1.4.1 software (ACEA Bioscience, San Diego, CA, USA) within 1h.

MH7A cells = experiment: LPS/ATP-induced pyroptosis in MH7A cells (TUNEL, immunofluorescence, Western blotting, ELISA); format: cell-based, human
Excerpt: (§1) Mouse macrophage cell line (RAW264.7 cells, Bio-Swamp, Wuhan, China) and fibroblast-like synoviocytes in patients with RA (MH7A cells, Riken cell bank, Ibaraki, Japan) at passage numbers four to eight were used in the current experiment validations.
The conventional NLRP3 inflammasome activation cellular model was induced by lipopolysaccharide [LPS, Escherichia coli (O111:B4), Sigma-Aldrich, St Louis, MO, USA] and adenosine triphosphate (ATP disodium salt hydrate, Sigma-Aldrich, St Louis, MO, USA) as in our previous study ([22]) ( Supplementary Materials Section 15 ).
(§2) The concentration of DMSO was less than 1‰ of the solution for the in vitro experiment.
The occurrence of pyroptosis in both MH7A cells and synovium tissues in AIA-M rats was determined by in situ TUNEL staining (TUNEL Andy Fluor™ 594 Apoptosis Detection Kit, ABP Biosciences, Wuhan, China) in accordance with the manufacturer’s protocol. Fluorescence images were visualized and photographed with inverted fluorescence microscopes (MF53, MSHOT, Guangzhou, China; Olympus, BX51, Tokyo, Japan).
Double fluorescence staining was performed as described previously ([22]) ( Supplementary Materials Section 20 ). The images were visualized and photographed with a confocal microscope (Zeiss LSM 880, Carl Zeiss, Jena, Germany) or an inverted fluorescence microscope (MF53, MSHOT, Guangzhou, China).
To evaluate the regulation of BHGZD on the candidate targets in arthritic tissue samples, as well as RAW264.7 and MH7A cells, Western blotting analysis was carried out following the protocol as in our previous studies ([21], [24], [29]). TLR4, phospho-PI3K (p-PI3K), PI3K, p-AKT, p-NFκB-p65, NFκB-p65, NLRP3, ASC, caspase-1, the N-terminal domain of GSDMD (GSDMD-NT), and IL-1β antibodies were used as shown in Supplementary Table S3 . GAPDH (GAPDH Mouse monoclonal antibody, Abcam, Cambridge, UK) and β-actin (Anti-beta-Actin/β-Actin Antibody, Boster Biological Technology, California, USA) were used as loading controls for arthritic tissue samples and cultured cells, respectively.
(§3) To evaluate the therapeutic effects of two BACs from BHGZD on the regulation of the “immune-inflammation” system, the levels of cytokines, proteins, and LDH release in RAW264.7 and MH7A cellular supernatant, as well as the sera of AIA-M rats were determined using enzyme-linked immunosorbent assay (ELISA) to assess the integrity of membranes in accordance with the manufacturer’s guidelines.
(§4) To induce a conventional NLRP3 inflammasome activation, Raw264.7cells was induced
(§5) with 0.2μg/mL lipopolysaccharide [LPS, Escherichia coli (O111:B4), Sigma-Aldrich, St
(§6) Louis, MO, USA] for 4h, followed with a 3mM ATP adenosine triphosphate (ATP disodium
(§7) salt hydrate, Sigma-Aldrich, St Louis, MO, USA) for 1h of incubation at 37℃ with 5% CO2
(§8) For MH7A cells LPS/ATP-induced pyrotosis, MH7A cells were induced with 1μg/mL LPS
(§9) for 6h, followed with a 3mM ATP for 1h of incubation at 37℃ with 5% CO2 (11).

[2] = In vivo pharmacokinetic analysis of MG and CA after oral BHGZD (UHPLC-QTRAP-MS/MS); conditions: rat plasma after oral BHGZD 21.4 g/kg each day, n = 3
Method: The pharmacokinetic parameters were calculated by Drug and Statistic software (Shanghai, China). Detailed information on the collection of blood samples and UHPLC-QTRAP-MS/MS conditions is provided in Supplementary Materials Section 13 . […]
Section 13 Pharmacokinetic analysis […]
administration of BHGZD, ultra-fast liquid chromatography coupled with triple quadrupole-linear ion trap composite mass spectrometry (UHPLC-QTRAP-MS/MS) system was […]
Bioanalytical Method Validation issued by Chinese Pharmacopoeia Commission in 2020.
The pharmacokinetic parameters were calculated by Drug and Statistic software […]
1) Collection of blood samples
Male Lewis rats (n=6, 6-8 weeks-old, 200±20g in weight) were purchased from Beijing Vital River Laboratory Animal Technology Co., Ltd. (SCCK 2016-0006, Beijing, China; n=3 per group, including normal control group and normal control+BHGZD treatment group).
Diet was prohibited for 12h before the experiment but water was freely available. Blood samples (~0.25mL) were collected from the retinal venous plexus into heparinized 1.5mL polythene tubes before administration and 0, 0.25, 0.5, 1, 2, 3, 4, 6, 8,12 and 24h after administration of BHGZD. The plasma samples were obtained after centrifuging at 12000rpm for 15min, and stored at -20℃ prior to analysis.
2) UHPLC-QTRAP-MS/MS conditions
Quantification analysis were performed on an ultra-high-performance liquid chromatography (Shimadzu Corp., Japan) tandem ion trap quadrupole QTRAP 6500 plus mass spectrometry (AB Sciex, USA). Chromatographic separation was conducted using a Poroshell 120 EC-C18 column (3.0×50mm, 2.7μm) at 40℃. The mobile phase was consisted of 0.1% formic acid–water (v/v, A) and methanol (B) and elution program were:
Mass spectrometry detector were conducted in negative mode and the detecting parameters were set as follows: curtain gas, 35 psi; collision gas, medium; ionspray voltage, 4500 V; temperature, 550℃; ion source gas 1 and 2, 55psi. Quantitative ion pairs were optimized for MG: m/z 421.2-301.1 (declustering potential: 63V, CE: 30eV) and for […]
Data acquisition and analysis

RAW264.7 cells [3] = experiment: LPS/ATP-induced pyroptosis in RAW264.7 cells (flow cytometry, FAM-FLICA, immunofluorescence, Western blotting, ELISA); format: cell-based, mouse
Excerpt: as §1, §2
Fluorescence images were visualized and photographed with a confocal microscope (Zeiss LSM 880, Carl Zeiss, Jena, Germany).
The images were visualized and photographed with a confocal microscope (Zeiss LSM 880, Carl Zeiss, Jena, Germany) or an inverted fluorescence microscope (MF53, MSHOT, Guangzhou, China).
as §3
Raw264.7 cells were maintained in DMEM (Hyclone, Logan, UT, USA), supplemented
100μg/mL streptomycin and 2mM L-glutamine (TBD, Tianjin, China) in a humidified 5%
CO2 incubator at the temperature of 37℃. The Raw264.7 cells at passage numbers four
to eight were used in the current experiment validations.
MH7A cells were cultured in sterile synoviocyte growth medium (Cell Applicatio ns, Inc.,
L-glutamine (TBD, Tianjin, China) in a humidified 5% CO2 incubator at the temperature of
37℃. MH7A at passage numbers four to eight were used in the current experiment
as §4, §5, §6, §7, §8, §9

recombinant TLR4 protein = target: T1, recombinant TLR4 protein (Homo sapiens, UniProt O00206); experiment: Microscale thermophoresis (MST) binding assay; conditions: 1:1 binding mode, read-out: mean KD, CA–TLR4
T1 construct: purchased Abcam ab233665
Method: The binding affinity between recombinant TLR4 protein and CA was measured by a NanoTemper Monolith NT.115 instrument (NanoTemper Technologies, Germany). The K D value was fitted by NanoTemper Monolith affinity software (NanoTemper Technologies, Germany) using 1:1 binding mode. Detailed information on the MST assay is provided in Supplementary Materials Section 12 . […]
compound was greater than 9.0×106cm/s and 40% which indicated drug-like […]
Section 11 Surface plasmon resonance (SPR) assay
SPR binding assays were analyzed with Biacore 8K (Biacore, Cytiva). Materials and reagents used in SPR assays were purchased from Cytiva. […]
UK) and CA contained in BHGZD was measured by NanoTemper Monolith NT.115 instrument (NanoTemper Technologies, Germany). […]
After the protein labeling experiment was completed, TLR4 was diluted with binding buffer (20mM HEPES, pH 7.4, 100mM NaCl and 0.005% Tween 20) to ensure that the fluorescence intensity of TLR4 during the MST assay was about 500 RU. […]
After incubation, the samples were loaded into the premium treated capillaries and measured in NanoTemper Monolith NT.115 instrument (NanoTemper Technologies, Germany). […]
The pharmacokinetic parameters were calculated by Drug and Statistic software

[4] = LPS/ATP-induced MH7A cells, all p < 0.05
[5] = LPS/ATP-induced, BHGZD 28.54 μg/ml, MG 1.69 ng/ml, CA 0.13 ng/ml, 24 h
[6] = LPS/ATP-induced RAW264.7 cells, all p < 0.05

T1 sequence (O00206 24-839): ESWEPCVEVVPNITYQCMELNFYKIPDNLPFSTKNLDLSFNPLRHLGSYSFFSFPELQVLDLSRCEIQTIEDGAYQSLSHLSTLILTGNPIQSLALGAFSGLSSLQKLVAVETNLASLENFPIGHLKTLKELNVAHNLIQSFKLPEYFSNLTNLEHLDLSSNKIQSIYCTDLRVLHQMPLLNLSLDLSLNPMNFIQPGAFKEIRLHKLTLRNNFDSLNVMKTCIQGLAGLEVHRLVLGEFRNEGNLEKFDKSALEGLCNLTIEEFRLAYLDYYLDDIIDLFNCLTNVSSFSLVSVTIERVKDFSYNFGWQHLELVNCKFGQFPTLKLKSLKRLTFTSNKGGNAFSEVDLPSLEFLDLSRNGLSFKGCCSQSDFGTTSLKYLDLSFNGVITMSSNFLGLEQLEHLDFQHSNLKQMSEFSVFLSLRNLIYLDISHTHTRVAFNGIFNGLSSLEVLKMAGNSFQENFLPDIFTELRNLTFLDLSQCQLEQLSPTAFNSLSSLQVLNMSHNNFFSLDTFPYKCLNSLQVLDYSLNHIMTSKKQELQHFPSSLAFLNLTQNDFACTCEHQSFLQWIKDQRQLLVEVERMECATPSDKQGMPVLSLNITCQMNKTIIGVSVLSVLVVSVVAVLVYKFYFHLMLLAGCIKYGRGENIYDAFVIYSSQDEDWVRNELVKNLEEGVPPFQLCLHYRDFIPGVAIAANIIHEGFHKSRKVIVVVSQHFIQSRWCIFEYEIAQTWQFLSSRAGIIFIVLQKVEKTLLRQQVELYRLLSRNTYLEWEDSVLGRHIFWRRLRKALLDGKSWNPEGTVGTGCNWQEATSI

O=C(O)/C=C/c1ccccc1 [CA, cinnamic acid]
cell viability (CCK8) (RAW264.7 cells [1]): no cell toxicity
GSDMD-NT (MH7A cells; LPS/ATP-induced MH7A cells, Western blotting): decreased
expression levels of NLRP3, ASC, and caspase-1 (MH7A cells; [4]): reduced
levels of IL-1β, IL-18, and LDH release in the supernatant (MH7A cells; [4]): reduced
number of TUNEL-positive MH7A cells (MH7A cells; [5]): reduced
t1/2z ([2]; apparent elimination half-life): 1.65 ± 1.34 h
Cmax ([2]; male, Lewis, rat, plasma, po, 21.4 g/kg, non-compartment model, read-out: Cmax): 120 ± 25.9 ng/mL
AUC(0-t) ([2]; male, Lewis, 0-24 h): 102 ± 67.8 ng·h/mL
AUC(0-inf) ([2]; male, Lewis): 144 ± 30.4 ng·h/mL
MRT last ([2]; male, Lewis, read-out: MRT(0-t)): 1.93 ± 0.35 h
MRT inf ([2]; male, Lewis, read-out: MRT(0-∞)): 2.26 ± 0.8 h
GSDMD-NT (RAW264.7 cells [3]; LPS/ATP-induced RAW264.7 cells, Western blotting): decreased
expression levels of NLRP3, ASC, and caspase-1 (RAW264.7 cells [3]; [6]): reduced
levels of IL-1β, IL-18, and LDH release in the supernatant (RAW264.7 cells [3]; [6]): reduced
PI positive cell rate (RAW264.7 cells [3]; LPS/ATP-induced, 1.69 ng/ml MG, 0.13 ng/ml CA, 24 h, inferior to BHGZD, all p < 0.05): prominently reduced
number of FLICA-positive RAW264.7 cells (RAW264.7 cells [3]; [5]): reduced
inhibition on cell pyroptosis induced by LPS/ATP, alone versus combination (RAW264.7 cells [3]; RAW264.7 and MH7A cells, all p < 0.05): weaker than that in the two-BAC combination treatment group
Kd (recombinant TLR4 protein): 211 µM
